In patent US12458581B2, “Carboxylic acid loaded salt carrier and the method for producing thereof” (priority 2021, dated 2025):
Like-named read-outs stand apart in the source and are kept apart here.

Key:
[1] = pH measurement of 0.1 M aqueous solutions; type: physicochemical; settings: r.t.; for pH values compound: 0.1 M in millipore water, average of at least three measurements
Source text: For the pH measurements, a Seven2Go portable pH meter S2 (pH measuring-range: −2 to 20; resolution: 0.01) with an InLab Ultra Micro-ISM electrode (measuring range: pH −1 to pH 11; low temperature membrane glass type; ceramic diaphragm; reference system with Ag^+ ion trap by argenthal) as well as with an in-lab routine pH electrode (measuring range: pH 0 to pH 14; ceramic diaphragm; reference system with Ag^+ ion trap by argenthal) from Mettler-Toledo AG (Analytical, Switzerland) was used.
For sake of comparability, compounds of the same loading ratio n=2, which is 2:1 of the loaded carboxylic acid with respect to the carrier carboxylic acid, were selected for this analysis. […] The analytes were dissolved in millipore water, stirred for 5 minutes in an airtight vial to perform the pH measurements thereafter at r.t. All measurements were performed at 0.1 molar (M) concentration of the samples, which is 0.1 mol per liter (mol/L).
For sake of reliability, every result stated is the average of at least three single measurements. […] The numbers 1-73 (nr., first row) are used as an assignment for the 73 pairs, comprising the compound of invention (third row), the corresponding carrier carboxylic acid (fourth row) and the loaded carboxylic acid (fifth row), as used in the FIG. 6.

[2] = Thermal analysis (TGA/DTA); type: physicochemical
Description: Thermal analysis was carried out with a Linseis STA 1600 simultaneous thermal analyzer to determine simultaneous changes of weight (TGA signal) and caloric measurable transformations (DTA signal) in a temperature range between r.t. and 300° C.

[3] = mean particle diameter
[4] = tested on: total bacteria count (TBC); settings: forage, 0.5 wt % topical, r.t., 31 days
Description: (§1) All tests were conducted under equal conditions. […] The additives were dosed at 0.5 wt % and were applied topically to the samples. […] The preservation effectiveness was established by testing for total bacteria count (TBC), yeast/fungi count and Enterobacteria/β-Glucoronidase-positive-Enterobacteria (E/β).

yeast/fungi = test: Silage preservation: yeast/fungi count; settings: forage, 0.5 wt % topical, r.t., 31 days
Description: as §1

[5] = tested on: Enterobacteria/β-Glucoronidase-positive-Enterobacteria (E/β); test: Silage preservation: E/β count; settings: forage, 0.5 wt % topical, r.t., 31 days
Description: as §1

[6] = Application as additive in liquid shaving soap
Source text: The mix was stirred with hard soap pieces remaining undissolved and placed for 50 seconds at 600 W in a microwave oven. […] The mixture was placed for 80 seconds in a microwave at 600 W. Thereafter the resulting mixture was hand-blended and filled into a jar for testing and storage.

Question: Which pH values compound [1] does the source give for `CC(=O)O.CC(=O)O.CC(=O)[O-].CC(=O)[O-].[Ca+2]` [CaAc-HAc [2], calcium acetate with loaded acetic acid] here?
Answer: Its pH values compound is 5.05.

Question: And the “thermal stability of the carrier carboxylic acid salt” value ([2]; TGA/DTA between r.t. and 300° C.)?
Answer: The value was at most 300 °C.

Question: And the “first loss of weight (TGA)” value ([2]; partially hydrated sample prior drying, 25-135° C.)?
Answer: The value was −7.0 wt % of total weight.

Question: What about the “second stage of weight-loss (TGA)” value ([2]; partially hydrated sample prior drying, 135-300° C.) of the same compound?
Answer: The value was 11.7 wt % of the total weight.

Question: What about the “overall loss of weight (TGA)” value ([2]; partially hydrated sample, between r.t. and 300° C.) of the same compound?
Answer: The value was 18.74%.

Question: What about the dav [3] of the same compound?
Answer: Its dav is 221 μm.

Question: What about the dav ([3]; listed as CaAc—HAc [2]) of the same compound?
Answer: Its dav is “approximately 220 μm”.

Question: For `O=CO.O=CO.O=C[O-].O=C[O-].[Ca+2]` [CaFo-HFo [2], calcium formate with loaded formic acid], which pH values compound [1] is on record?
Answer: Its pH values compound is 5.19.

Question: What about the TBC [4] of the same compound?
Answer: Its TBC is “dramatically reduce”.

Question: And the yeast count (yeast/fungi)?
Answer: Its yeast count is “dramatically reduce”.

Question: And the E/β count [5]?
Answer: The E/β count was “dramatically reduce”.

Question: With `CCC(=O)O.CCC(=O)O.O=C[O-].O=C[O-].[Ca+2]` [CaFo-HProp [2], calcium formate with loaded propionic acid] as the compound, how does the pH values compound [1] read?
Answer: Its pH values compound is 5.79.

Question: And the TBC [4]?
Answer: The TBC was “dramatically reduce”.

Question: And the growth of yeasts (yeast/fungi)?
Answer: The growth of yeasts was “completely inhibit”.

Question: And the yeast count (yeast/fungi)?
Answer: The yeast count was “dramatically reduce”.

Question: What about the E/β count [5] of the same compound?
Answer: The E/β count was “dramatically reduce”.

Question: And the “growth of β-Glucoronidase-positive-Enterobacteria (especially E. coli)” value [5]?
Answer: The value was “completely inhibit”.

Question: For `CC(O)C(=O)O.CC(O)C(=O)O.O=C([O-])c1ccccc1O.O=C([O-])c1ccccc1O.[Ca+2]` [CaSal-HLac [2], calcium salicylate with loaded lactic acid], which pH values compound [1] is on record?
Answer: Its pH values compound is 3.43.

Question: What about the “stability (>24 h)” value [6] of the same compound?
Answer: The value was “yes”.

Question: With `CC(=O)O.CCC(=O)O.O=C([O-])C(O)C(O)C(=O)[O-].[Ca+2]` (centres unmarked) [CaT-HAc-HProp [1,1], calcium tartrate with loaded acetic acid and propionic acid] as the compound, how does the pH values compound [1] read?
Answer: The pH values compound was 3.63.

Question: What about the pH value ([1]; 0.1 M, compound made via in-situ process) of the same compound?
Answer: Its pH value is 3.63.

Question: What about the dav [3] of the same compound?
Answer: Its dav is 220 μm.

Question: And the dav ([3]; listed as CaT-HAc—HProp [1,1])?
Answer: Its dav is “approximately 220 μm”.

Question: For `CCC(=O)O.CCC(=O)O.O=C[O-].O=C[O-].[Mg+2]` [MgFo-HProp [2], magnesium formate with loaded propionic acid], which pH values compound [1] is on record?
Answer: Its pH values compound is 4.84.

Question: What about the “thermal stability of the carrier carboxylic acid salt” value [2] of the same compound?
Answer: Its value is “up to 300 °C”.

Question: What about the “water release on heating (TGA)” value ([2]; constant heating, 1° C. to 300° C., FIG. 4(A)) of the same compound?
Answer: Its value is “no water is released”.

Question: And the “total loss of weight (TGA)” value ([2]; dry sample, heating in the range of 125° C. to 200° C., 2 K/min, nitrogen)?
Answer: The value was 24.4%.

Question: With `O=C([O-])CC(O)(CC(=O)[O-])C(=O)[O-].O=C([O-])CC(O)(CC(=O)[O-])C(=O)[O-].[Ca+2].[Ca+2].[Ca+2]` [calcium citrate] as the compound, how does the “stability (>24 h)” value ([6]; liquid shaving soap, additive 1 or 2 % wt) read?
Answer: Its value is “yes”.

Question: Which “stability (>24 h)” value [6] does the source give for `O=C(O)CC(O)C(=O)O` (centres unmarked) [malic acid] here?
Answer: Its value is “no”.
